Measurements as given in US20260007625A1, “Compounds for the Treatment of Neuromuscular Disorders” (NMD PHARMA A/S, priority 2022, published 2026).

Tests used:
[1] = system: isolated rat soleus muscles exposed to tubocurarine; experiment: Recovery of nerve-stimulated contractile force in isolated rat soleus nerve-muscle preparation after tubocurarine; conditions: tubocurarine 115 nM, after 40 mins of compound exposure
Description: The current disclosure relates to compounds that inhibit CIC-1 ion channels and increase muscle excitability and thereby improve muscle function in clinical conditions where muscle activation is failing. Such conditions result in loss of contractile function of skeletal muscle, weakness and excessive fatigue. In this series of experiments the compounds were tested for their ability to restore contractile function of isolated rat muscle when the neuromuscular transmission had been compromised akin to neuromuscular disorders.
Experimentally, soleus muscles from 4-5 week old rats were isolated with the motor nerve remaining attached. The nerve-muscle preparations were mounted in experimental setups that enabled electrical stimulation of the motor nerve. Stimulation of the motor nerve led to activation of the muscle fibres and ensuing force production that was recorded. The nerve-muscle preparations were also in these experiments incubated in the standard Krebs Ringer (see example 15) and the solution was heated to 30° C. and continuously equilibrated with a mixture of 95% O2 and 5% CO2, PH ˜7.4.
After mounting the nerve-muscle preparation in the experimental setup, the contractile function of the muscle was initially assessed under the control conditions. Sub-maximal concentration of tubocurarine (115 nM), an acetylcholine receptor antagonist, was then added to the experimental bath to impose partial inhibition of the ability of the motor nerve to activate the muscle fibres. The experimental condition mimics the failing neuromuscular transmission in a range of neuromuscular disorders. After addition of tubocurarine the contractile force declined over the next 90 minutes to 10-50% of the control force. The test compound was then added to obtain the required compound concentration in the bath and the contractile force recovered was measured. To quantify the ability of the compound to restore force the percentage of the initial force that was restored was determined after 40 mins of compound exposure and the point increase is reported in Table 2.

CIC-1 ion channel = biological target: T1, CIC-1 ion channel (Rattus norvegicus, UniProt P35524); experiment: Electrophysiological measurement (Gm, three micro-electrodes) of compound inhibition of CIC-1 in rat soleus muscle fibres; format: cell-based; conditions: Gm in whole rat soleus muscle fibres, approx. 30° C., four increasing compound concentrations
T1 construct: from tissue; host or cells: intact soleus muscle of 12-14 week old Wistar rats
T1 sequence (P35524 1-994): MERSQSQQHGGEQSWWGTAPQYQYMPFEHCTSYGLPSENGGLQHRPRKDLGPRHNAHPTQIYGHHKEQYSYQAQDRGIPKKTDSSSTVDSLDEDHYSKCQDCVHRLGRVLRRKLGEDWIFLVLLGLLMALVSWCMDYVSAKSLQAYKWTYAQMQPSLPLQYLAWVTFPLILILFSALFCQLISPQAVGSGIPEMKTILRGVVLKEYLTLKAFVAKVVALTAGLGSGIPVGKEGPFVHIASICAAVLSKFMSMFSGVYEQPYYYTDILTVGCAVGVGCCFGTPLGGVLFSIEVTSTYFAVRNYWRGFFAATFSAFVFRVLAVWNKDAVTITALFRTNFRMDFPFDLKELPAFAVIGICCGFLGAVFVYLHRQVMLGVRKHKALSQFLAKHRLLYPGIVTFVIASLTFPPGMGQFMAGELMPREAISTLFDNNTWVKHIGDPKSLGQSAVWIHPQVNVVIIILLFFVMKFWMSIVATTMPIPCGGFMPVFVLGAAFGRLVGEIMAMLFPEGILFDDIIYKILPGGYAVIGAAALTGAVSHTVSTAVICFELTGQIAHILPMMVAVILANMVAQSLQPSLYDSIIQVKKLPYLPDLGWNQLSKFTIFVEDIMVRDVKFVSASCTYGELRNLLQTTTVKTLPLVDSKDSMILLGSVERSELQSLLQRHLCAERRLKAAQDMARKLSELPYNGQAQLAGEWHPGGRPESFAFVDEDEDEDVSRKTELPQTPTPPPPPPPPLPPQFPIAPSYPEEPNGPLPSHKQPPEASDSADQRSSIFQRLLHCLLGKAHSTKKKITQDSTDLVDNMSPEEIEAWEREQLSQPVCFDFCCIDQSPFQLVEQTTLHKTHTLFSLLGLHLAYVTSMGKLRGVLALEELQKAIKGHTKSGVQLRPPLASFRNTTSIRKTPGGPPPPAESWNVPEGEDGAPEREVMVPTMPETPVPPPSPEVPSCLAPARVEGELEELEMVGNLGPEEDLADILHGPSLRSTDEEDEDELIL
Description: Apparent CIC-1 affinity was reported by the concentration of compound at which 50% of the compound's full inhibition of CIC-1 was observed (EC50).
Experimentally, Gm was measured in individual fibres of whole rat soleus muscles using a three micro-electrodes technique described in this example and in full detail elsewhere (Riisager et al., Determination of cable parameters in skeletal muscle fibres during repetitive firing of action potentials. Journal of Physiology, 2014, 592, 4417-4429). Briefly, intact rat soleus muscles were dissected out from 12-14 week old Wistar rats and placed in an experimental chamber that was perfused with a standard Krebs Ringer solution containing 122 mM NaCl, 25 mM NaHCO3, 2.8 mM KCl, 1.2 mM KH2PO4, 1.2 mM MgSO4, 1.3 mM CaCl2), 5.0 mM D-glucose. During experiments, the solution was kept at approx. 30° C. and continuously equilibrated with a mixture of 95% O2 and 5% CO2, PH ˜7.4. The experimental chamber was placed in Nikon upright microscope that was used to visualize individual muscle fibres and the three electrodes (glass pipettes filled with 2 M potassium citrate). For Gm measurements, the electrodes were inserted into the same fibre with known inter-electrode distances of 0.35-0.5 mm (V1-V2, X1) and 1.1-1.5 mm (V1-V3, X3). The membrane potential of the impaled muscle fibre was recorded by all electrodes. Two of the electrodes were furthermore used to inject 50 ms current pulses of −30 nA. […] The steady state voltage deflection at each distance was divided by the magnitude of current injected (−30 nA) and the resulting transfer resistances were plotted against inter-electrode distance and the data was fitted to a mono-exponential function from which Gm could be calculated using linear cable theory.
To establish a dose response relationship, Gm was first determined in 10 muscle fibres in the absence of compound and then at four increasing compound concentrations with Gm determinations in 5-10 fibres at each concentration. The average Gm values at each concentration were plotted against compound concentration and the data was fitted to sigmoidal function to obtain an EC50 value.

Lewis rats = experiment: In situ isometric hindlimb force in anaesthetised rats under partial neuromuscular block by Cisatracurium; format: in vivo, rat; conditions: sodium salt, 80 Hz stimulation, Cisatracurium infusion
Description: Isometric hindlimb force was measured in 12-week old female Lewis rats in the presence and absence of compound.
Rats were placed under anaesthesia with isoflurane (2-4%), intubated and subsequently connected to a micro ventilator (Microvent 1, Hallowell EMC, US). Two stimulation electrodes were inserted through the skin to stimulate the sciatic nerve. A small incision was made proximal to the ankle, to expose the Achilles tendon, which was tied by cotton string, and connected to a force transducer (Fort250, World Precision Instruments) with adjustable position (Vernier control). The Achilles tendon was then cut distal to the attached cotton string. […]
Muscle contractile properties were assessed by applying an electrical current (under supramaximal voltage conditions) to the nerve and recording the force generated by the muscle. The muscle was stretched until maximal force was obtained, when assessed by 2 Hz stimulation. Isometric force was measured every 30 seconds at 12 Hz (Twitch), 10 pulses, and at every 5 minutes at 80 Hz (Tetanic) for 1 second (80 pulses). […] The effect of test article was assessed on its ability to increase force generated from the stimulation pattern applied. The effect was assessed in the ability to increase force per se (tetanic, 80 Hz, stimulation), and the ratio between individual twitch peaks (12 Hz stimulation). […]

Compound | Point increase, percentage of initial force that was restored ([1]; test compound 50 μM) | EC50 (CIC-1 ion channel) | Point increase, percentage of initial force that was restored ([1]; test compound 10 μM) | further results
COc1c(C)cc(F)c(OC)c1C(=O)O [Compound A-1, 3-fluoro-2,6-dimethoxy-5-methylbenzoic acid] | 19% |  |  | 
COc1c(F)cc(Br)c(OC)c1C(=O)O [Compound A-2, 3-bromo-5-fluoro-2,6-dimethoxybenzoic acid] |  |  |  | Point increase, percentage of initial force that was restored ([1]; test compound 100 μM): 16%
COc1c(Cl)cc(Cl)c(OC)c1C(=O)O [Compound A-3, 3,5-Dichloro-2,6-dimethoxybenzoic acid] | 46% | 7.4 µM |  | 
Cc1cc(Cl)c(OC(F)(F)F)c(C(=O)O)c1C [Compound A-4, 3-chloro-5,6-dimethyl-2-(trifluoromethoxy)benzoic acid] |  | 1.7 µM | 23% | 
Cc1cc(Cl)c(OC2CC2)c(C(=O)O)c1C [Compound A-5, 3-chloro-2-cyclopropoxy-5,6-dimethylbenzoic acid] | 48% | 6.6 µM |  | 
COc1c(Cl)cc(C)c(Cl)c1C(=O)O [Compound A-6, 2,5-dichloro-6-methoxy-3-methylbenzoic acid] |  | 5.8 µM | 28% | 
COc1c(C)cc(Cl)c(OC)c1C(=O)O [Compound A-7, 3-chloro-2,6-dimethoxy-5-methylbenzoic acid] | 44% | 5.3 µM |  | increase in tetanic force (Lewis rats; 2.5 mg/kg i.v. in PBS): 27%
CSc1c(Cl)cc(C)c(C)c1C(=O)O [Compound A-8, 3-chloro-5,6-dimethyl-2-(methylsulphanyl)benzoic acid] |  | 3.2 µM | 24% | 
Cc1cc(Cl)c(OC(F)F)c(C(=O)O)c1C [Compound A-9, 3-chloro-2-(difluoromethoxy)-5,6-dimethylbenzoic acid] | 50% | 4.3 µM |  | 
Cc1cc(Cl)c(OCF)c(C(=O)O)c1C [Compound A-10, 3-chloro-2-(fluoromethoxy)-5,6-dimethylbenzoic acid] |  | 4.1 µM | 21% | 
COc1c(F)cc(C)c(C)c1C(=O)O [Compound A-11, 3-fluoro-2-methoxy-5,6-dimethylbenzoic acid] | 25% |  |  | 
CCOc1c(Cl)cc(C)c(C)c1C(=O)O [Compound A-12, 3-chloro-2-ethoxy-5,6-dimethylbenzoic acid] | 39% |  |  | 
COc1c(Br)cc(C)c(C)c1C(=O)O [Compound A-13, 3-bromo-2-methoxy-5,6-dimethylbenzoic acid] |  | 4.4 µM | 29% | 
COc1c(Cl)cc(C)c(C)c1C(=O)O [Compound A-14, 3-chloro-2-methoxy-5,6-dimethylbenzoic acid] | 44% | 3.2 µM |  | increase in tetanic force (Lewis rats; 10 mg/kg p.o. in PBS): 45%
